pIC50: −log10 of the molar value.
Molecular target: T1, rat glycine transporter subtype 2 (GlyT2) (Rattus norvegicus, UniProt P58295)
T1 construct: expressed in transfected cells; host or cells: CHO cells
T1 sequence (P58295 1-799): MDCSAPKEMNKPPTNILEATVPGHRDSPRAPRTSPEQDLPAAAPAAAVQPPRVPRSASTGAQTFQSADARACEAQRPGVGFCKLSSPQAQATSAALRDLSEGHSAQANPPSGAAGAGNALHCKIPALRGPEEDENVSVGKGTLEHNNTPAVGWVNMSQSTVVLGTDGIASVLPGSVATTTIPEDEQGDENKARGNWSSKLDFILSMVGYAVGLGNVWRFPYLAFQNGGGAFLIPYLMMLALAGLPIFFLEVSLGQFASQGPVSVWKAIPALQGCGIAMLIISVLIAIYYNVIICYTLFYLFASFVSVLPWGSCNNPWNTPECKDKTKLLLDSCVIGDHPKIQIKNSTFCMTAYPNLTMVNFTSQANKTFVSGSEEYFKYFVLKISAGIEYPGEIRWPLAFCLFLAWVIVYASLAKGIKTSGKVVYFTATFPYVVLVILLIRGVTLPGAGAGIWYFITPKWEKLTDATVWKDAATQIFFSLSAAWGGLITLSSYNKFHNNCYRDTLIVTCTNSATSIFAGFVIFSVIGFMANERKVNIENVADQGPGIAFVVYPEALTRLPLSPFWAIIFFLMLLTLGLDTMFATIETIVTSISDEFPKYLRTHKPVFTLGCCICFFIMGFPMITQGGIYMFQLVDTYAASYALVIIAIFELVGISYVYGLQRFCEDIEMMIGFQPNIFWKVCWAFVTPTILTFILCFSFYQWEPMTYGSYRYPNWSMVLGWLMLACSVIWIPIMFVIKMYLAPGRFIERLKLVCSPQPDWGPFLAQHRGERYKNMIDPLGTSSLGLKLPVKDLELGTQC
Assay: Inhibition of glycine transporter 2: 3H-glycine uptake in CHO cells expressing rat GlyT2
Type: cell-based
Conditions: GlyT2 inhibitory concentration, 15 min preincubation, 10 nM 3H-glycine, 7 min uptake, read-out: GlyT2 Inhib.
Method: CHO cells expressing rat glycine transporter subtype 2 (GlyT2) were grown in high glucose Dulbecco's modified Eagle's medium supplemented with 10% bovine fetal serum at 37° C. in a 5% CO2 atmosphere. Subconfluent cells growing in 24- or 96-well plates were washed with PBS, and were preincubated at 37° C. for 15 min with uptake buffer (100 mM NaCl, 2 mM KCl, 1 mM CaCl2, 1 mM MgCl2, 10 mM HEPES, pH 7.5) containing sample compounds. Uptake was initiated by adding prewarmed ^3H-glycine yielding a 10 nM final glycine concentration, and was terminated after 7 min by aspiration of the buffer. Cells were washed 3 times with ice-cold PBS, and radioactivity was determined by scintillation counting using TopCount. GlyT2 inhibitory concentrations for several compounds of Formula I are given below.

| pIC50 | SMILES |
| --- | --- |
| 5.96 | c1ccc(CSc2nnc(CCCCc3nnc(SCc4ccccc4)o3)o2)cc1 [Compound 21, 2,2′-(1,4-butanediyl)bis[5-(benzylthio)-1,3,4-oxadiazole]] |
| 5.18 | CCn1nc(C)cc1-c1nnc(SCc2ccccc2)n1-c1ccccc1 [Compound 7, 3-benzylthio-5-(2-ethyl-5-methyl-3-diazolyl)-4-phenyl-1,2,4-triazole] |
| 6.05 | Clc1cccc(Cl)c1CSc1nnc(-c2cnccn2)s1 [Compound 12, 5-[(2,6-dichlorophenyl)methylthio]-2-(pyrazin-2-yl)-1,3,4-thiadiazole] |
